In US7662857B2, “Diagnostic agents for pancreatic exocrine function” (Tokyo Gas Company Limited, priority 2001, dated 2010):

How the values were obtained:
[1] = test system: pancreatic exocrine function; experiment: 13C-dipeptide breath test in normal rats (Δ13C in exhaled CO2 after oral administration); assay type: in vivo, rat; settings: for Δ^13C(‰) peak value / Peak time: Table 1, overnight-fasted Wistar rats, oral 35 μmol/kg (5 ml/kg); for Δ^13C(‰) peak value: exhaled CO2; for Peak time: peak in time course of Δ13C(‰) up to 20 min; for Δ^13C(‰) value at 5 min after the administration / Δ^13C(‰) value at 10 min after the administration / Δ^13C(‰) value at 15 min after the administration / Δ^13C(‰) value at 20 min after the administration: normal rats, mean±SD; for Δ^13C(‰) value at 5 min after the administration / Δ^13C(‰) value at 10 min after the administration / Δ^13C(‰) value at 15 min after the administration / Δ^13C(‰) value at 20 min after the administration / Δ^13C(‰) peak value compared with the peak value of Bz-Ala-(^13C-Ala)-ONa: oral 35 μmol/kg; for Δ^13C(‰) peak value compared with the peak value of Bz-Ala-(^13C-Ala)-ONa: rats, comparison in words
Method: (§1) Overnight-fasted rats (male, Wistar, 8-week old) in the awake state were individually fixed in a rat holder of a microwave irradiation apparatus. The breath was collected at a rate of about 100 to 300 ml/min using a stroke pump (Variable Stroke Pump VS-500; Shibata Kagaku Kogyo), and the CO2 concentration therein was maintained at about 3%. A Perma Pure drier (MD-050-12P; Perma Pure INC.) was set between the rat holder and the stroke pump to remove water vapor from the breath. When the CO2 concentration was stabilized, the rat was temporarily released from the rat holder. A ^13C-labeled dipeptide or a sodium salt thereof each dissolved in distilled water was administered to the stomach of the rat using an oral probe [dose: 35 μmol/kg (5 ml/kg)]. The breath was sampled with a syringe every 5 min until up to 20 min. A 15 ml sample was transferred from the syringe into a vacuum vial (10 ml), sealed and subjected to automated analysis by GC-MS (Breath MAT) [FinniganMAT]. Δ^13C(‰) was calculated from δ^13C values which are ^13C values of a sample (i.e. differences from the standard substance PDB) using the following formula. Δ^13C(‰)=(δ^13C)tmin−((δ^13C)0 min <Breath MAT Measuring Conditions>
Apparatus: Breath MAT plus (Finningan)
Using Ac-Met-(^13C-Ala)-ONa, Z-Met-(^13C-Ala)-ONa, Boc-Met-(^13C-Ala)-ONa or Boc-Phe-(^13C-Ala)-ONa [dose: 35 μmol/kg (5 ml/kg)], ^13C-breath tests were carried out in the same manner as in Example 12. The resultant Δ^13C(‰) peak values were compared with the Δ^13C(‰) peak value in the Bz-Ala-(^13C-Ala)-ONa breath test.
(§2) As in Example 12, Bz-Phe-(^13C-Ala)-ONa [dose: 12.6 mg/kg (35 μmol/kg)], Bz-Gln-(^13C-Ala)-ONa [dose: 12.0 mg/kg (35 μmol/kg)], Bz-Val-(^13C-Ala)-ONa [dose: 11.0 mg/kg (35 μmol/kg)], Bz-Tyr-(^13C-Ala)-ONa [dose: 13.2 mg/kg (35 μmol/kg)], Bz-Met-(^13C-Ala)-ONa [dose: 12.1 mg/kg (35 μmol/kg)], Bz-Ser-(^13C-Ala)-ONa [dose: 10.6 mg/kg (35 μmol/kg)], Bz-Thr-(^13C-Ala)-ONa [dose: 11.0 mg/kg (35 μmol/kg)] or Boc-Phe-(^13C-Ala)-ONa [dose: 8.84 mg/kg (24.6 μmol/kg)] was administered orally to normal rats and chronic pancreatitis rats. Then, the time course of the degree of increase of the ^13C concentration in exhaled CO2 (Δ^13C(‰)) was measured.

[2] = test system: pancreatic exocrine function; experiment: 13C-dipeptide breath test in chronic pancreatitis rats (oleic acid injected into pancreatic duct); assay type: in vivo, rat; settings: oral 35 μmol/kg, mean±SD
Method: as §1
Chronic pancreatitis rats were created according to the method of Mundlos et al., Pancreas 1:29 (1986). Oleic acid was injected into the pancreatic duct of 5-week old Wistar male rats. After breeding for 3 weeks, they were used in ^13C-dipeptide breath tests.
as §2

| SMILES | Δ^13C(‰) peak value [1] | Peak time [1] | Δ^13C(‰) value at 5 min after the administration [1] | Δ^13C(‰) value at 10 min after the administration [1] | Δ^13C(‰) value at 15 min after the administration [1] | Δ^13C(‰) value at 20 min after the administration [1] | Δ^13C(‰) peak value compared with the peak value of Bz-Ala-(^13C-Ala)-ONa [1] | Δ^13C(‰) value at 5 min after the administration [2] | Δ^13C(‰) value at 10 min after the administration [2] | Δ^13C(‰) value at 15 min after the administration [2] | Δ^13C(‰) value at 20 min after the administration [2] |
| --- | --- | --- | --- | --- | --- | --- | --- | --- | --- | --- | --- |
| CSCC[C@H](NC(=O)c1ccccc1)C(=O)N[C@@H](C)[13C](=O)[O-].[Na+] [Na salt of Bz-Met-(^13C-Ala), N-benzoyl-L-methionyl-^13C-L-alanine] | 48.88 ‰ | 10 min | 19.76±10.16 ‰ | 48.88±17.45 ‰ | 45.53±8.00 ‰ | 38.58±3.79 ‰ | higher | 1.52±1.47 ‰ | 7.69±5.15 ‰ | 14.59±8.50 ‰ | 20.25±9.43 ‰ |
| CC(C)[C@H](NC(=O)c1ccccc1)C(=O)N[C@@H](C)[13C](=O)[O-].[Na+] [Na salt of Bz-Val-(^13C-Ala), N-benzoyl-L-valyl-^13C-L-alanine] | 52.89 ‰ | 15 min | 13.98±6.59 ‰ | 35.22±8.02 ‰ | 52.89±11.18 ‰ | 45.38±6.53 ‰ | higher | 2.21±2.74 ‰ | 10.62±12.40 ‰ | 18.80±19.39 ‰ | 23.95±19.38 ‰ |
| C[C@H](NC(=O)[C@H](CO)NC(=O)c1ccccc1)[13C](=O)[O-].[Na+] [Na salt of Bz-Ser-(^13C-Ala), N-benzoyl-L-seryl-^13C-L-alanine] | 47.48 ‰ | 15 min | 8.29±4.94 ‰ | 35.91±11.85 ‰ | 47.48±12.89 ‰ | 43.04±5.30 ‰ | higher | 1.07±1.43 ‰ | 5.94±8.13 ‰ | 10.34±11.99 ‰ | 12.80±11.97 ‰ |
